Experimental data reported in patent US7268128B2, “1,3,5-trisubstituted-5-phenyl and 5-pyridyl pyrazolopyrimidinone derivatives having PDE7 inhibiting action” (Ausbio Pharma Co., Ltd., priority 2001, dated 2007).

biological target: T1, PDE7 (type VII phosphodiesterase) (Homo sapiens, UniProt Q13946); assay: PDE7 inhibiting activity (3H-cAMP hydrolysis, active fraction from MOLT-4 cells); format: biochemical; conditions: PDE7 fraction from MOLT-4 cells, 0.064 μM cAMP, 10 μM rolipram present, 2 hours at 25° C.; read-out: IC50 values for phosphodiesterase inhibiting activities (PDE7)
T1 construct: endogenous in cells; host or cells: MOLT-4 (ATCC CRL-1582), soluble fraction, HiTrapQ anion-exchange fraction
T1 sequence (Q13946 whole entry): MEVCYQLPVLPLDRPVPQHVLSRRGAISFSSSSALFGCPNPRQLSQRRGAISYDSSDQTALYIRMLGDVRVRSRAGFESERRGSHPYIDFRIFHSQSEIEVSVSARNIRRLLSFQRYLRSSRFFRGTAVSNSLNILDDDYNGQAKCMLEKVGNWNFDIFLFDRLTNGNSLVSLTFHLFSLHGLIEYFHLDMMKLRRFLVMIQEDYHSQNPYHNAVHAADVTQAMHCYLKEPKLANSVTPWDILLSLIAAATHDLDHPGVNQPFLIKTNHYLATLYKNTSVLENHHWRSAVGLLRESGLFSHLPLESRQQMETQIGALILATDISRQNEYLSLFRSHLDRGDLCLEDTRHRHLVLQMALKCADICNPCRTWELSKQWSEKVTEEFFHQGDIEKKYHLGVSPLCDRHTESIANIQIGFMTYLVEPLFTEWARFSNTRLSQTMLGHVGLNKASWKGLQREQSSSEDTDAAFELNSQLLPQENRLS
How it was run: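 Read-out: supernatant radioactivity after twice-repeated QAE-Sephadex treatment of a 2 h, 25° C reaction (3H-cAMP at 0.064 μM cAMP, 10 μM rolipram, 5′-nucleotidase, 1 mM MgCl2, pH 7.5). Enzyme is an anion-exchange-purified fraction from MOLT-4 T cells. IC50 taken as half-maximal inhibition.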

SMILES	IC50 [nM]
COc1cc(NC(C)=O)ccc1-c1nc2c(c(C3CCCCC3)nn2C)c(=O)[nH]1 [Example 45, N-[4-(3-cyclohexyl-1-methyl-4-oxo-4,5-dihydro-1H-pyrazolo[3,4-d]pyrimidin-6-yl)-3-methoxyphenyl]acetamide]	≤ 1000
COc1cc(NC(C)=O)ccc1-c1nc2c(C)nn(C3CCCCC3)c2c(=O)[nH]1 [Example 10, N-[4-(1-cyclohexyl-3-methyl-7-oxo-6,7-dihydro-1H-pyrazolo[4,3-d]pyrimidin-5-yl)-3-methoxyphenyl]acetamide]	≤ 1000
COc1cc(S(=O)(=O)N2CCC(O)CC2)ccc1-c1nc2c(C)nn(C3CCCCC3)c2c(=O)[nH]1 [Example 199, 1-Cyclohexyl-5-{4-[(4-hydroxy-1-piperidinyl)sulfonyl]-2-methoxyphenyl}-3-methyl-1,6-dihydro-7H-pyrazolo[4,3-d]pyrimidin-7-one]	≤ 1000
COc1cc(S(=O)(=O)N(C)CCN)ccc1-c1nc2c(C)nn(C3CCCCC3)c2c(=O)[nH]1 [Example 210-1, N-(2-aminoethyl)-4-(1-cyclohexyl-3-methyl-7-oxo-6,7-dihydro-1H-pyrazolo[4,3-d]pyrimidin-5-yl)-3-methoxy-N-methylbenzenesulfonamide]	≤ 1000
COc1cc(C(=O)N2CCC(O)CC2)ccc1-c1nc2c(c(C3CCCCC3)nn2C)c(=O)[nH]1 [Example 69, 3-Cyclohexyl-6-{4-[(4-hydroxy-1-piperidinyl)carbonyl]-2-methoxyphenyl}-1-methyl-1,5-dihydro-4H-pyrazolo[3,4-d]pyrimidin-4-one]	≤ 1000
COc1ccccc1-c1nc2c(C)nn(C3CCCCC3)c2c(=O)[nH]1 [Example 5, 1-Cyclohexyl-5-(2-methoxyphenyl)-3-methyl-1,6-dihydro-7H-pyrazolo[4,3-d]pyrimidin-7-one]	≤ 1000
COc1cc(N2CCN(C)CC2)ccc1-c1nc2c(c(C3CCCCCC3)nn2C)c(=O)[nH]1 [Example 64, 3-Cycloheptyl-6-[2-methoxy-4-(4-methyl-1-piperazinyl)phenyl]-1-methyl-1,5-dihydro-4H-pyrazolo[3,4-d]pyrimidin-4-one]	≤ 1000
CCn1nc(C2CCCCC2)c2c(=O)[nH]c(-c3ccc(S(=O)(=O)N4CCCNCC4)cc3OC)nc21 [Example 209, 3-Cyclohexyl-6-[4-(1,4-diazepan-1-ylsulfonyl)-2-methoxyphenyl]-1-ethyl-1,5-dihydro-4H-pyrazolo[3,4-d]pyrimidin-4-one]	≤ 1000

Further lines, results first:

IC50 [nM]	SMILES
≤ 1000	CNC1CCN(c2cc(OC)c(-c3nc4c(C)nn(C5CCCCC5)c4c(=O)[nH]3)cc2F)CC1 [Example 129, 1-Cyclohexyl-5-{5-fluoro-2-methoxy-4-[4-(methylamino)-1-piperidinyl]phenyl}-3-methyl-1,6-dihydro-7H-pyrazolo[4,3-d]pyrimidin-7-one]
≤ 10	COc1cc(NCCN(C)C)ccc1-c1nc2c(C)nn(C3CCCCC3)c2c(=O)[nH]1 [Example 230, 1-Cyclohexyl-5-(4-{[2-(dimethylamino)ethyl]amino}-2-methoxyphenyl)-3-methyl-1,6-dihydro-7H-pyrazolo[4,3-d]pyrimidin-7-one]
≤ 10	COc1cc(N2CCNCC2)ccc1-c1nc2c(c(C3CCCCC3)nn2C)c(=O)[nH]1 [Example 60, 3-Cyclohexyl-6-[2-methoxy-4-(1-piperazinyl)phenyl]-1-methyl-1,5-dihydro-4H-pyrazolo[3,4-d]pyrimidin-4-one]
≤ 10	COc1cc(N2CCCS2(=O)=O)ccc1-c1nc2c(c(C3CCCCC3)nn2C)c(=O)[nH]1 [Example 155, 3-Cyclohexyl-6-[4-(1,1-dioxido-2-isothiazolidinyl)-2-methoxyphenyl]-1-methyl-1,5-dihydro-4H-pyrazolo[3,4-d]pyrimidin-4-one]
≤ 10	COc1cc(N2CCC(C(=O)O)CC2)ccc1-c1nc2c(c(C3CCCCC3)nn2C)c(=O)[nH]1 [Example 76]
